A word on the EC50: it is the concentration giving half of the maximal effect. Broadly, the IC50 is the concentration needed to halve the response being measured. A higher IC50 goes with lower potency.

The text below walks through data of US20220289728A1, “MODULATORS OF TREX1” (Constellation Pharmaceuticals, Inc., priority 2019, published 2022).

SMILES strings stand for the structures.

One assay has as its system HCT116 dual cells. Nature of the assay: HCT116 Cell Assay (Lucia luciferase reporter of Type I interferon induction). Particulars: Homo sapiens, HCT-116, 4 h pre-treatment, pBR322/BstNI DNA transfection, Lucia luciferase at 48 h; relative to 10 uM compound 39. The assay is classed as cell-based, human. In a few lines:
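Cells were pretreated with compound for 4 h (≤0.1% DMSO), then transfected with pBR322/BstNI DNA (1.25 ug/mL; 100 ng/well) using Lipofectamine LTX. Secreted Lucia luciferase in the medium was read after 48 h at 37 °C. EC50 came from four-parameter fits normalised to no-inhibitor and 10 uM reference-inhibitor controls.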
(Reporter assays use an easily measured gene product as a stand-in for the process of interest.)

Assay [1] deals with T1, human TREX2 (residues M44-A279) (Homo sapiens, UniProt Q9BQ50).
T1 construct: human TREX2 (residues M44-A279, expressed in E. coli); His-TEV (His tag with TEV site) (N); made in house; host or cells: E. coli
T1 sequence (Q9BQ50 44-279 isoform Q9BQ50-1): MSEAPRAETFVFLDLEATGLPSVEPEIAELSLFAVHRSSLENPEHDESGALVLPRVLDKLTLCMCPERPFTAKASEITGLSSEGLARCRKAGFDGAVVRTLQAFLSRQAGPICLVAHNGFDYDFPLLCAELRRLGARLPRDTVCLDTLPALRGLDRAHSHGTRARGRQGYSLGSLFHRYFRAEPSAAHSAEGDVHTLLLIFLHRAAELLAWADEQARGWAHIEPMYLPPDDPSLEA
Nature of the assay: TREX2 Biochemical Assay (fluorescence, dsDNA substrate degradation). Particulars: 2.5 nM TREX2, 60 nM dsDNA substrate, 25 minutes at room temperature. An outline of the steps:
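Final conditions: 2.5 nM His-Tev-tagged TREX2 (E. coli-expressed), 60 nM fluorophore/quencher-labelled dsDNA, 50 mM Tris pH 7.4, 150 mM NaCl, 100 mM MgCl2, 1% DMSO; 10-point compound dose-response. Incubated 25 min at room temperature, then EDTA-quenched; fluorescence read at ex 570/em 615 nm. IC50 from four-parameter fit against pre-quenched and no-inhibitor controls.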

The next assay deals with T2, full length human TREX1 (Homo sapiens, UniProt Q9NSU2).
T2 construct: N-terminally His-Tev tagged full length human TREX1; His-TEV (His tag with TEV site) (N); made in house; host or cells: E. coli
T2 sequence (Q9NSU2 1-314): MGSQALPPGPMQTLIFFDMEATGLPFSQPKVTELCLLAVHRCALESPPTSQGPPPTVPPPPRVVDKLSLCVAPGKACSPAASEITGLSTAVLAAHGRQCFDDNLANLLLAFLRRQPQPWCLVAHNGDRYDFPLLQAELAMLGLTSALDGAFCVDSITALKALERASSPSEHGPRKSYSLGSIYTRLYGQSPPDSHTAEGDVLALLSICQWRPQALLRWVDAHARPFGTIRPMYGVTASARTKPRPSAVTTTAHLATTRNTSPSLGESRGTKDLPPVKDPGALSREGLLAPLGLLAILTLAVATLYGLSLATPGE
Nature of the assay: TREX1 Biochemical Assay (fluorescence, dsDNA substrate degradation). Particulars: 150 pM TREX1, 60 nM dsDNA substrate, 25 minutes at room temperature. An outline of the steps:
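N-terminally His-Tev-tagged TREX1 was expressed in E. coli; 150 pM enzyme was run with 60 nM TEX615/quencher-labelled dsDNA at pH 7.4 in 1.0% DMSO for 25 min at room temperature, then quenched with EDTA. Fluorescence at 615 nm (570 nm excitation) was normalised to pre-quenched and no-inhibitor controls, and IC50 came from four-parameter fits.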

For `CCN(Cc1ccccc1)c1nc(C(=O)Nc2cnoc2)c(O)c(=O)n1C` [Example 13, 2-(benzyl(ethyl)amino)-5-hydroxy-N-(isoxazol-4-yl)-1-methyl-6-oxo-1,6-dihydropyrimidine-4-carboxamide], the EC50 in the assay on HCT116 dual cells was 10 to 100 µM. The IC50 was 1 to 10 µM in assay [1] and under 0.1 µM against full length human TREX1.
In the same order, the values of `CN(Cc1ccc2ccccc2c1)c1nc(C(=O)Nc2cnoc2)c(O)c(=O)n1C` [Example 14] are 10 to 100 µM, 1 to 10 µM and under 0.1 µM.
Turning to `CN(Cc1cccc2ccccc12)c1nc(C(=O)Nc2cnoc2)c(O)c(=O)n1C` [Example 15], the EC50 in the assay on HCT116 dual cells fell in the range of 1 to 10 µM. Moreover, the IC50 in assay [1] was 1 to 10 µM; on full length human TREX1, under 0.1 µM.
Turning to `Cn1c(N(CCOc2ccccc2)Cc2ccccc2)nc(C(=O)Nc2cnoc2)c(O)c1=O` [Example 16], in the assay on HCT116 dual cells, the EC50 fell in the range of 10 to 100 µM. The half-maximal inhibitory concentration (IC50) was under 1 µM in assay [1] and under 0.1 µM on full length human TREX1.
In the same order, the values of `CN(Cc1ccccc1-c1ccccc1)c1nc(C(=O)Nc2cnoc2)c(O)c(=O)n1C` [Example 18] are 10 to 100 µM, 1 to 10 µM and under 0.1 µM.
In the same order, the values of `CN(Cc1cccc(-c2cnn(C)c2)c1)c1nc(C(=O)Nc2cnoc2)c(O)c(=O)n1C` [Example 19] are 10 to 100 µM, 1 to 10 µM and under 0.1 µM.
In the same order, the values of `CN(Cc1ccccn1)c1nc(C(=O)Nc2cnoc2)c(O)c(=O)n1C` [Example 22] are 10 to 100 µM, 1 to 10 µM and 0.1 to 1 µM.
As for `CN(Cc1ccc(-c2cnn(C)c2)cc1)c1nc(C(=O)Nc2cnoc2)c(O)c(=O)n1C` [Example 25], in the assay on HCT116 dual cells, the EC50 fell in the range of 10 to 100 µM. The IC50 in assay [1] was 1 to 10 µM; on full length human TREX1, under 0.1 µM.
In the same order, the values of `C[C@H](c1ccccc1)N(C)c1nc(C(=O)Nc2cnoc2)c(O)c(=O)n1C` [Example 27] are 1 to 10 µM, under 1 µM and under 0.1 µM.
In the same order, the values of `C[C@@H](c1ccccc1)N(C)c1nc(C(=O)Nc2cnoc2)c(O)c(=O)n1C` [Example 28] are 1 to 10 µM, 1 to 10 µM and under 0.1 µM.
As for `CC(C)N(Cc1ccccc1)c1nc(C(=O)Nc2cnoc2)c(O)c(=O)n1C` [Example 29], the 50% effective concentration (EC50) in the assay with HCT116 dual cells fell in the range of 10 to 100 µM. Further, the values for the IC50 (in assay [1]; against full length human TREX1) were 1 to 10 µM and under 0.1 µM, respectively.
In the same order, the values of `CN(c1nc(C(=O)Nc2cnoc2)c(O)c(=O)n1C)C(c1ccccc1)c1ccccc1` [Example 30] are under 1 µM, under 1 µM and under 0.1 µM.
In the same order, the values of `CN(Cc1cccc2c1cnn2C)c1nc(C(=O)Nc2cnoc2)c(O)c(=O)n1C` [Example 31] are 1 to 10 µM, 1 to 10 µM and under 0.1 µM.
In the same order, the values of `CN(Cc1cccnc1)c1nc(C(=O)Nc2cnoc2)c(O)c(=O)n1C` [Example 32] are 10 to 100 µM, 1 to 10 µM and under 0.1 µM.
In the case of `Cc1c(-c2ccncc2CN(C)c2nc(C(=O)Nc3cnoc3)c(O)c(=O)n2C)cnn1C` [Example 35], in the assay with HCT116 dual cells, the EC50 fell in the range of 10 to 100 µM. The IC50 is 1 to 10 µM in assay [1] and under 0.1 µM at full length human TREX1.
In the same order, the values of `CN(c1nc(C(=O)Nc2cnoc2)c(O)c(=O)n1C)C(C)(c1ccccc1)c1ccccc1` [Example 52] are 10 to 100 µM, 1 to 10 µM and under 0.1 µM.
In the same order, the values of `CN(Cc1ccccc1Cl)c1nc(C(=O)Nc2cnoc2)c(O)c(=O)n1C` [Example 74] are 1 to 10 µM, 1 to 10 µM and under 0.1 µM.
`CN(Cc1ccccc1-c1cnn(C)c1)c1nc(C(=O)Nc2cnoc2)c(O)c(=O)n1C` [Example 78]: in the assay on HCT116 dual cells, the EC50 is 10 to 100 µM. Moreover, the concentration for half-maximal inhibition (IC50) in assay [1] is 1 to 10 µM; against full length human TREX1, under 0.1 µM.
As to `Cc1nn(C)cc1-c1cncc(CN(C)c2nc(C(=O)Nc3cnoc3)c(O)c(=O)n2C)n1` [Example 79], the EC50 in the assay with HCT116 dual cells is 10 to 100 µM. Moreover, the IC50 was 1 to 10 µM in assay [1] and under 0.1 µM against full length human TREX1.
In the same order, the values of `Cc1nn(C)cc1-c1cnc(CN(C)c2nc(C(=O)Nc3cnoc3)c(O)c(=O)n2C)cn1` [Example 80] are 10 to 100 µM, 1 to 10 µM and under 0.1 µM.
